From patent publication US8481001B2, “Combination therapies comprising quinoxaline inhibitors of P13K-alpha for use in the treatment of cancer” (Exelixis, Inc., priority 2007, dated 2013)

Assays:
[1] = system: MCF7 human mammary adenocarcinoma cells; experiment: MCF7 breast cancer xenograft model (Study 1 and Study 2); type: in vivo; conditions: Compound B 30 mg/kg qd, single agent
Procedure: On day 0, cells were harvested by trypsinization, and 5×10^6 cells (passage 10 and 95.4% viability for Study 1, passage 9 and 90% viability for Study 2) in 100 μL of a solution made of 50% cold Hanks balanced salt solution with 50% growth factor reduced matrigel (R&D Systems for Study 1 and Becton Dickinson for Study 2) implanted subcutaneously into the hindflank of female nude mice.
Compound A was tested both as a single agent and in combination with Compound B, an EGFR inhibitor, in a breast tumor model. The MCF7 human breast carcinoma cell line harbors a heterozygous, activating mutation in PI3K (PI3KCA/E545K) and expresses wild-type EGFR.
Compound B was administered orally once-daily (qd) at 30 mg/kg, and Compound A was administered once-daily at 30 mg/kg or once every other day (q2d) at 100 mg/kg. Combination therapies consisted of Compound B together with Compound A at 30 mg/kg qd or 100 mg/kg q2d.

[2] = system: A549 human lung carcinoma cells; experiment: A549 non-small cell lung cancer xenograft model; type: in vivo
Procedure: A transponder was implanted in each mouse for identification, and animals were monitored daily for clinical symptoms and survival. Body weights were recorded daily.
Compound A was tested both as a single agent and in combination with Compound B. The A549 human non-small cell lung carcinoma cell line harbors a homozygous stop mutation in the gene encoding LKB1, and an activating G12S mutation in K-Ras, promoting activation of both PI3K and mTOR. A549 cells also express wild-type EGFR.
As a single agent, Compound B, an inhibitor of EGFR, was orally administered once-daily at 30 mg/kg and Compound A was orally administered either at 30 mg/kg qd or 100 mg/kg q2d. Combination therapies consisted of Compound B with Compound A at 30 mg/kg or 100 mg/kg. Administration of each agent in the combination groups was separated by 6 h.

[3] = system: Calu-6 human lung anaplastic carcinoma cells; experiment: Calu-6 non-small cell lung cancer xenograft model; type: in vivo; conditions: carboplatin 50 mg/kg i.v. q4d, single agent; FIG. 3
Procedure: On day 0, cells were harvested by trypsinization, and 5×10^6 cells (passage #8, 96% viability) in 0.1 mL ice-cold Hank's balanced salt solution were implanted intradermally in the hind-flank of 5-8 week old female athymic nude mice. A transponder was implanted in each mouse for identification, and animals were monitored daily for clinical symptoms and survival. Body weights were recorded daily.
Calu-6 is a human NSCLC cell line that harbors a heterozygous activating mutation in K-Ras (Q61K).

[4] = system: MDA-MB-468 human breast adenocarcinoma cells
From the text: (§1) MDA-MB-468 is a human breast carcinoma cell line that has an increase in the copy number of the EGFR gene and a homozygous deletion of PTEN.

MDA-MB-468 cells = conditions: in vitro treatment of MDA-MB-468 cells
From the text: as §1

[5] = system: PC-3 human prostate adenocarcinoma cells; type: in vivo; conditions: taxol 7.5 mg/kg i.v. twice weekly, single agent; FIG. 1
Procedure: Female and male athymic nude mice (NCr) 5-8 weeks of age and weighing approximately 20-25 g were used in the following model. Prior to initiation of a study, the animals were allowed to acclimate for a minimum of 48 h. During these studies, animals were provided food and water ad libitum and housed in a room conditioned at 70-75° F. and 60% relative humidity. A12 h light and 12 h dark cycle was maintained with automatic timers. All animals were examined daily for compound-induced or tumor-related deaths.
PC-3 human prostate adenocarcinoma cells were cultured in vitro in DMEM (Mediatech) supplemented with 20% Fetal Bovine Serum (Hyclone), Penicillin-Streptomycin and non-essential amino acids at 37° C. in a humidified 5% CO2 atmosphere. […] A transponder was implanted in each mouse for identification, and animals were monitored daily for clinical symptoms and survival. Body weights were recorded daily.
For subcutaneous or intradermal tumors, the mean tumor weight of each animal in the respective control and treatment groups was determined twice weekly during the study. […] Percent inhibition of tumor growth (TGI) is determined with the following formula: […]
[formula] Tumor size is calculated individually for each tumor to obtain a mean±SEM value for each experimental group. Statistical significance is determined using the 2-tailed Student's t-test (significance defined as P<0.05).

[6] = Compound B 30 mg/kg qd, single agent

SMILES: COc1cc2c(Nc3ccc(Cl)c(Cl)c3F)ncnc2cc1OC[C@@H]1C[C@@H]2CN(C)C[C@@H]2C1 [Compound B, N-(3,4-dichloro-2-fluorophenyl)-7-({[(3aR,5r,6aS)-2-methyloctahydrocyclopenta-[c]pyrrol-5-yl]methyl}oxy)-6-(methyloxy)quinazolin-4-amine]
- tolerability [1]: generally well tolerated
- body weight loss [2, 6]: 1.5-6.9%
- dose omission [2, 6]: no dose omission
- tolerability [2, 6]: generally well tolerated
- tumor growth inhibition ([2]; Compound B oral 30 mg/kg once-daily for 18 days, single agent): 80%
- tolerability (summary) ([2]; single agent administration): well tolerated with minimal dose skipping

SMILES: N.N.O=C([O-])C1(C(=O)[O-])CCC1.[Pt+2] [carboplatin]
- tumor growth inhibition [3]: Significant tumor growth inhibition

SMILES: C#Cc1cccc(Nc2ncnc3cc(OCCOC)c(OCCOC)cc23)c1 [erlotinib]
- tumor growth inhibition ([4]; erlotinib oral 100 mg/kg qd, single agent, FIG. 5): significant but incomplete tumor growth inhibition
- rate of body weight gain ([4]; mouse, in vivo): apparent decrease in their rate of body weight gain
- PI3K pathway (MDA-MB-468 cells): fails to downregulate the PI3K pathway

SMILES: CC(=O)O[C@H]1C(=O)[C@@]2(C)[C@H]([C@H](OC(=O)c3ccccc3)[C@]3(O)C[C@H](OC(=O)[C@H](O)[C@@H](NC(=O)c4ccccc4)c4ccccc4)C(C)=C1C3(C)C)[C@]1(OC(C)=O)CO[C@@H]1C[C@@H]2O [taxol, Paclitaxel]
- tumor growth inhibition [5]: Comparable tumor growth inhibition
